Assay results: patent US12174192B2, “Methods for detecting and treating cancers having adenosine pathway activation” (Corvus Pharmaceuticals, Inc., priority 2018, dated 2024)
Entries after “also recorded” stand apart in the source; their conditions may differ.

Assays:
Assay type in all cases: cell-based
[1] = system: human peripheral blood mononuclear cells (PBMCs); test: RNA sequencing (RNA-Seq) of NECA-treated, anti-CD3/CD28-activated PBMCs
Protocol: RNA purified from normal, healthy human peripheral blood mononuclear cells (PBMCs) treated with 5′-N-ethylcarboxamidoadenosine (NECA) and activated with anti-CD3/CD28 antibody were analyzed by NanoString hybridization-based quantification (NanoString Technologies, Inc.). […] Each dot represents the expression level of a specific gene. Dot shade represents the concentration of NECA used and/or different PBMC donors. […] Data were confirmed by RNA sequencing (RNA-Seq).

[2] = system: PBMCs; test: CXCL5 protein ELISA in culture supernatants of PBMCs treated with NECA +/- CPI-444; conditions: PBMCs from two human donors; two days after anti-CD3/CD28 activation; DMSO vehicle control
Protocol: Expression of CXCL5 was determined by ELISA 2 days after activation.
FIGS. 2B and 2C show the response of PBMCs from two different donors to NECA+/−CPI-444 treatment. DMSO was used as vehicle control. […] This control helps establish that the induction of CXCL5 is specific to signaling through adenosine receptors.
NECA activation of CXCL5 protein expression was evaluated. PBMCs were harvested from two different human donors. […] CPI-444 (Corvus Pharmaceuticals) is an antagonist of the adenosine A2A receptor. CXCL5 protein in the culture supernatants was evaluated by ELISA two days after activation. CXCL5 expression is activated by NECA. […] This establishes that the induction of CXCL5 is specific to signaling through adenosine receptors.

[3] = system: human peripheral blood mononuclear cells (PBMCs); test: NanoString mRNA quantification in NECA-treated, anti-CD3/CD28-activated PBMCs; conditions: 0.1 μM, 1 μM, and/or 10 μM NECA vs vehicle-treated control
Protocol: RNA purified from normal, healthy human peripheral blood mononuclear cells (PBMCs) treated with 5′-N-ethylcarboxamidoadenosine (NECA) and activated with anti-CD3/CD28 antibody were analyzed by NanoString hybridization-based quantification (NanoString Technologies, Inc.). […] Each dot represents the expression level of a specific gene. Dot shade represents the concentration of NECA used and/or different PBMC donors.

CCNC(=O)[C@H]1O[C@@H](n2cnc3c(N)ncnc32)[C@H](O)[C@@H]1O [NECA, 5′-N-ethylcarboxamidoadenosine]
logFC CCL24 expression ([1]; Control (DMSO) vs 0.1 μm NECA): −1.068 | logFC CD93 expression ([1]; Control (DMSO) vs 0.1 μm NECA): 0.9975 | logFC CSF3 expression ([1]; Control (DMSO) vs 0.1 μm NECA): 1.603 | logFC CXCL2 expression ([1]; Control (DMSO) vs 0.1 μm NECA): 1.452 | logFC CXCL3 expression ([1]; Control (DMSO) vs 0.1 μm NECA): 1.694 | logFC CXCL5 expression ([1]; Control (DMSO) vs 0.1 μm NECA): 2.388 | logFC EHF expression ([1]; Control (DMSO) vs 0.1 μm NECA): −0.2753 | logFC EML6 expression ([1]; Control (DMSO) vs 0.1 μm NECA): 0.2117 | logFC EPB41L3 expression ([1]; Control (DMSO) vs 0.1 μm NECA): 1.183 | logFC FUT7 expression ([1]; Control (DMSO) vs 0.1 μm NECA): −0.2135 | logFC HAS1 expression ([1]; Control (DMSO) vs 0.1 μm NECA): 2.059 | logFC IL23A expression ([1]; Control (DMSO) vs 0.1 μm NECA): 0.7971 | logFC INHBA expression ([1]; Control (DMSO) vs 0.1 μm NECA): 0.5196 | logFC KLC4 expression ([1]; Control (DMSO) vs 0.1 μm NECA): 0.216 | logFC LAYN expression ([1]; Control (DMSO) vs 0.1 μm NECA): 0.4228 | logFC MRPL11 expression ([1]; Control (DMSO) vs 0.1 μm NECA): −0.19 | logFC MS4A7 expression ([1]; Control (DMSO) vs 0.1 μm NECA): 0.9319 | logFC NPR1 expression ([1]; Control (DMSO) vs 0.1 μm NECA): 0.7892 | logFC OST4 expression ([1]; Control (DMSO) vs 0.1 μm NECA): −0.2352 | logFC PADI2 expression ([1]; Control (DMSO) vs 0.1 μm NECA): 0.4802 | logFC PTGS2 expression ([1]; Control (DMSO) vs 0.1 μm NECA): 1.184 | logFC SLC7A7 expression ([1]; Control (DMSO) vs 0.1 μm NECA): 0.5935 | logFC SPON1 expression ([1]; Control (DMSO) vs 0.1 μm NECA): 0.3611 | logFC ST6GALNAC2 expression ([1]; Control (DMSO) vs 0.1 μm NECA): 0.5342 | logFC SYTL3 expression ([1]; Control (DMSO) vs 0.1 μm NECA): 0.2894 | logFC WDR83OS expression ([1]; Control (DMSO) vs 0.1 μm NECA): −0.2872 | logFC ZBTB18 expression ([1]; Control (DMSO) vs 0.1 μm NECA): 0.2431 | logFC CCDC60 expression ([1]; Control (DMSO) vs 1 μm NECA): 0.07658 | logFC CD93 expression ([1]; Control (DMSO) vs 1 μm NECA): 1.454 | logFC CSF3 expression ([1]; Control (DMSO) vs 1 μm NECA): 2.802 | logFC CXCL2 expression ([1]; Control (DMSO) vs 1 μm NECA): 2.361 | logFC CXCL3 expression ([1]; Control (DMSO) vs 1 μm NECA): 2.573 | logFC CXCL5 expression ([1]; Control (DMSO) vs 1 μm NECA): 3.451 | logFC EHF expression ([1]; Control (DMSO) vs 1 μm NECA): −0.2522 | logFC EMR3 expression ([1]; Control (DMSO) vs 1 μm NECA): 1.364 | logFC EPB41L3 expression ([1]; Control (DMSO) vs 1 μm NECA): 1.854 | logFC EREG expression ([1]; Control (DMSO) vs 1 μm NECA): 1.89 | logFC FUT7 expression ([1]; Control (DMSO) vs 1 μm NECA): −0.4158 | logFC GPR157 expression ([1]; Control (DMSO) vs 1 μm NECA): 0.9283 | logFC HAS1 expression ([1]; Control (DMSO) vs 1 μm NECA): 3.238 | logFC IL23A expression ([1]; Control (DMSO) vs 1 μm NECA): 1.363 | logFC IL24 expression ([1]; Control (DMSO) vs 1 μm NECA): 2.876 | logFC INHBA expression ([1]; Control (DMSO) vs 1 μm NECA): 0.9638 | logFC LAYN expression ([1]; Control (DMSO) vs 1 μm NECA): 0.5277 | logFC MS4A7 expression ([1]; Control (DMSO) vs 1 μm NECA): 1.535 | logFC OST4 expression ([1]; Control (DMSO) vs 1 μm NECA): −0.1747 | logFC PADI2 expression ([1]; Control (DMSO) vs 1 μm NECA): 0.7173 | logFC PID1 expression ([1]; Control (DMSO) vs 1 μm NECA): 1.729 | logFC PTGS2 expression ([1]; Control (DMSO) vs 1 μm NECA): 2.23 | logFC SLC7A7 expression ([1]; Control (DMSO) vs 1 μm NECA): 0.9514 | logFC SPON1 expression ([1]; Control (DMSO) vs 1 μm NECA): 0.5667 | logFC ST6GALNAC2 expression ([1]; Control (DMSO) vs 1 μm NECA): 0.8306 | logFC TGIF1 expression ([1]; Control (DMSO) vs 1 μm NECA): 0.4769 | logFC ZBTB18 expression ([1]; Control (DMSO) vs 1 μm NECA): 0.3385 | logFC CCNE1 expression ([1]; Control (DMSO) vs 10 μm NECA): −0.4518 | logFC CD93 expression ([1]; Control (DMSO) vs 10 μm NECA): 1.895 | logFC CD300E expression ([1]; Control (DMSO) vs 10 μm NECA): 1.71 | logFC CSF3 expression ([1]; Control (DMSO) vs 10 μm NECA): 3.508 | logFC CXCL2 expression ([1]; Control (DMSO) vs 10 μm NECA): 3.011 | logFC CXCL3 expression ([1]; Control (DMSO) vs 10 μm NECA): 3.106 | logFC CXCL5 expression ([1]; Control (DMSO) vs 10 μm NECA): 3.354 | logFC DFNA5 expression ([1]; Control (DMSO) vs 10 μm NECA): 0.6559 | logFC ECEL1 expression ([1]; Control (DMSO) vs 10 μm NECA): 0.6918 | logFC EPB41L3 expression ([1]; Control (DMSO) vs 10 μm NECA): 2 | logFC GALM expression ([1]; Control (DMSO) vs 10 μm NECA): −0.3189 | logFC GBP6 expression ([1]; Control (DMSO) vs 10 μm NECA): −0.8039 | logFC GPR157 expression ([1]; Control (DMSO) vs 10 μm NECA): 1.139 | logFC HAS1 expression ([1]; Control (DMSO) vs 10 μm NECA): 3.807 | logFC IL5 expression ([1]; Control (DMSO) vs 10 μm NECA): −0.6885 | logFC IL23A expression ([1]; Control (DMSO) vs 10 μm NECA): 1.332 | logFC INHBA expression ([1]; Control (DMSO) vs 10 μm NECA): 1.192 | logFC LAP3 expression ([1]; Control (DMSO) vs 10 μm NECA): −0.4286 | logFC LOC100505585 expression ([1]; Control (DMSO) vs 10 μm NECA): 0.6639 | logFC NID1 expression ([1]; Control (DMSO) vs 10 μm NECA): 1.087 | logFC PADI2 expression ([1]; Control (DMSO) vs 10 μm NECA): 0.9386 | logFC PID1 expression ([1]; Control (DMSO) vs 10 μm NECA): 2.124 | logFC PTGS2 expression ([1]; Control (DMSO) vs 10 μm NECA): 2.349 | logFC RHCG expression ([1]; Control (DMSO) vs 10 μm NECA): 0.5767 | logFC SLC7A7 expression ([1]; Control (DMSO) vs 10 μm NECA): 0.9134 | logFC SPON1 expression ([1]; Control (DMSO) vs 10 μm NECA): 0.568 | logFC ST6GALNAC2 expression ([1]; Control (DMSO) vs 10 μm NECA): 0.876 | CXCL5 protein in culture supernatants (ELISA), effect of NECA [2]: activated; also recorded: dose-dependent increase in CXCL5 | logFC CD14 expression [3]: 0.4485 | logFC CD86 expression [3]: 0.3148 | logFC CLEC5A expression [3]: 0.3833 | logFC CXCL1 expression [3]: 0.6909 | logFC CXCL2 expression [3]: 1.093 | logFC CXCL3 expression [3]: 1.101 | logFC CXCL5 expression [3]: 1.338 | logFC CXCL6 expression [3]: 0.6535 | logFC IL1A expression [3]: 0.6367 | logFC IL1B expression [3]: 0.6345 | logFC IL6 expression [3]: 0.7014 | logFC IL8 expression [3]: 0.6411 | logFC IL23A expression [3]: 0.4628 | logFC IL24 expression [3]: 0.5768 | logFC PLAUR expression [3]: 0.5031 | logFC PPBP expression [3]: 0.683 | logFC PTGS2 expression [3]: 0.6892 | logFC SLC11A1 expression [3]: 0.7022 | logFC TBX21 expression [3]: −0.1238 | logFC THBS1 expression [3]: 0.8703
